Entries after “also recorded” stand apart in the source; their conditions may differ.
Legend:
FG and FG-β3 cells = assay: Tumor sphere formation assay (Example 1); format: cell-based, human; conditions: for effect of αvβ3 expression on drug resistance (tumor sphere formation): FG lacking β3 vs FG-β3, in vitro
Procedure: Tumor spheres formation assays were performed essentially as described previously^17. […] Colonies were stained with crystal violet and scored with an Olympus SZH10 microscope. Survival curves were generated at least with five concentration points.

[1] = system: β3-positive and β3-negative tumor cells (FG, PANC-1); assay: Self renewal tumorsphere assay and soft agar assay, 3D (Example 3); format: cell-based, human; conditions: β3 ectopic expression (FG) or knockdown (PANC-1)
Procedure: Tumorsphere assay was performed as previously described. Soft agar formation assays were performed essentially as described previously. […] The media was replaced with fresh inhibitor 2/5 times a week. Survival curves were generated at least with five concentration points. […] Cells were treated with a dose response of gemcitabine, cisplatin, erlotinib, lapatinib and linsitinib. […] Tumor volumes are expressed as mean±SEM. *P<0.05. […] Results are expressed as % tumor weight compared to vehicle control. *P<0.05. […] Data are mean±SE; **P<0.001. […] Scale bar, 50 μm.

[2] = system: panel of human carcinoma cell lines; assay: Tumorsphere assay (Example 2); format: cell-based; conditions: for impact of integrin β3 expression on resistance: β3-negative vs β3-positive cells; for tumorsphere formation in vitro, combination with erlotinib: β3-positive cells (FG-β3, PANC-1, A549), erlotinib 0.5 μM with lenalidomide 1-2 μM or bortezomib 4 nM
Procedure: Tumorsphere assay was performed as previously described (10). […] The media was replaced with fresh inhibitor 2/6 times a week. Survival curves were generated at least with five concentration points.

[3] = system: subcutaneous β3-positive tumors (FG-β3, FG-R); assay: Subcutaneous β3-positive tumors in mice; conditions: for tumor growth, monotherapy: lenalidomide 25 mg/kg/day or bortezomib 0.25 mg/kg alone; for tumor growth in vivo, combination with erlotinib: with erlotinib 25 mg/kg/day, lenalidomide 25 mg/kg/day (FG-β3) or bortezomib 0.25 mg/kg (FG-R)
Procedure: FG pancreatic carcinoma cells (1×10^6 tumor cells in 30 μl of PBS) were injected into the pancreas of 6- to 8-week-old male nude mice as previously described (10). Tumors were established for 2-3 weeks (tumor sizes were monitored by ultrasound) before beginning dosing. […] FG pancreatic carcinoma cells (1×10^6 tumor cells in 30 μl of PBS) were injected into the pancreas of 6- to 8-week-old male nude mice as previously described (10). Tumors were established for 2-3 weeks (tumor sizes were monitored by ultrasound) before beginning dosing. […] Tumors were measured every 2-3 days with calipers until they were harvested at day 10,16 or after acquired resistance.
Tumor dimensions are reported as the fold change relative to size of the same tumor on Day 1. Mean±SEM, (A) *P=0.042 using a one way ANOVA test. n=6 mice per group. […] Tumor dimensions are reported as the fold change relative to size of the same tumor on Day 1. *P=0.0134 using a one way ANOVA test. n=8 mice per group.

[4] = system: β3-positive cells (FG-β3, MDA-MB231, FG-R); assay: Anchorage independent growth in soft agar, NFkB inhibitors with erlotinib (FIG. 31); format: cell-based, human; conditions: Lenalidomide 2 μM, PS-1145 1 μM, 10 to 15 days; for response of colonies / tumorsphere formation to single agent: β3-positive cells (intrinsic or acquired resistant), each agent alone: erlotinib 0.5 μM; for tumorsphere formation, combination with erlotinib: β3-positive cells, in combination with erlotinib 0.5 μM
Excerpt: Then, the soft agar were stained with crystal violet and the colonies were counted manually.

[5] = system: HCC827 human lung cancer cells; assay: Circulating tumor cells from orthotopic HCC827 lung tumors (FIG. 30); format: in vivo, mice; conditions: orthotopic HCC827, 3 months at 25 mg/kg/day
Excerpt: FIG. 30 illustrates data showing integrin β3 (CD61) is a RTKI (Receptor Tyrosine Kinase (RTK) Inhibitor) drug resistance biomarker on the surface of circulating tumor cells; as discussed in detail in Example 2, below.

HCC827 xenograft tumors = HCC827 xenograft tumors treated until acquired resistance; format: in vivo, mice; conditions: erlotinib 12.5 mg/kg/day until acquired resistance
Excerpt: Tumor volumes are expressed as mean±SEM. *P<0.05. […] Results are expressed as % tumor weight compared to vehicle control. *P<0.05. […] Data are mean±SE; **P<0.001. […] Scale bar, 50 μm.

[6] = system: phosphorylated TBK1 and NF-κB; assay: Immunoblot analysis of RalB effectors in cells grown in suspension and treated with erlotinib; format: cell-based, human; conditions: αvβ3 negative cells, erlotinib 0.5 μM
Procedure: Cells were lysed in either RIPA lysis buffer (50 mM Tris pH 7.4, 100 mM NaCL, 2 mM EDTA, 10% DOC, 10% Triton, 0.1% SDS) or Triton lysis buffer (50 mM Tris pH 7.5, 150 mN NaCl, 1 mM EDTA, 5 mM MgCl2, 10% Glycerol, 1% Triton) supplemented with complete protease and phosphatase inhibitor mixtures (Roche) and centrifuged at 13,000 g for 10 min at 4° C. Protein concentration was determined by BCA assay. 500 μg to 1 mg of protein were immunoprecipitated with 3 μg of anti-integrin αvβ-3 (LM609) overnight at 4° C. following by capture with 25 μl of protein A/G (Pierce). Beads were washed five times, eluted in Laemmli buffer, resolved on NuPAGE 4-12% Bis-Tris Gel (Invitrogen) and immunoblotting was performed with anti-integrin β3 (Santa Cruz), anti-RalB (Cell Signaling Technology), anti KRAS (Santa Cruz). For immunoblot analysis, 25 of protein was boiled in Laemmli buffer and resolved on 8% to 15% gel. […]

[7] = system: H441 human lung adenocarcinoma orthotopic tumors; assay: Orthotopic lung cancer xenograft model; format: in vivo, mice
Procedure: FG pancreatic carcinoma cells (1×10^6 tumor cells in 30 μl of PBS) were injected into the pancreas of 6- to 8-week-old male nude mice as previously described (10). Tumors were established for 2-3 weeks (tumor sizes were monitored by ultrasound) before beginning dosing. […] H441 lung adenocarcinoma cells were generated as previously described (21). […] FG pancreatic carcinoma cells (1×10^6 tumor cells in 30 μl of PBS) were injected into the pancreas of 6- to 8-week-old male nude mice as previously described (10). Tumors were established for 2-3 weeks (tumor sizes were monitored by ultrasound) before beginning dosing. […] H441 lung adenocarcinoma cells were generated as previously described (21). […] Tumors were measured every 2-3 days with calipers until they were harvested at day 10,16 or after acquired resistance.

integrin αvβ3 (CD61) = assay: Flow cytometry of αvβ3 after prolonged EGFR TKI exposure in vitro; format: cell-based, human; conditions: FG, Miapaca-2 and other erlotinib sensitive lines, weeks of treatment
Procedure: Human pancreatic (FG, PANC-1, Miapaca-2 (MP2), CFPAC-1, XPA-1, CAPAN-1, BxPc3), breast (MDAMB231, MDAMB468 (MDA468), BT20, SKBR3, BT474), colon (SW480) and lung (A549, H441) cancer cell lines were grown in ATCC recommended media supplemented with 10% fetal bovine serum, glutamine and non-essential amino acids. We obtained FG-β3, FG-D119A mutant and PANC-shβ3 cells as previously described^17. […] Cisplatin was generated from Sigma-Aldrich. Lenalidomide was purchased from LC Laboratories.
200,000 cells, after drug or vehicle treatment, were washed with PBS and incubated for 20 minutes with the Live/Dead reagent (Invitrogen) according to the manufacturer's instruction, then, cells were fixed with 4% paraformaldehyde for 15 min and blocked for 30 min with 2% BSA in PBS. Cells were stained with fluorescent-conjugated antibodies to CD61 (LM609), CD44 (eBioscience), CD24 (eBioscience), CD34 (eBioscience), CD133 (Santa Cruz), CD56 (eBioscience), CD29 (P4C10) and CD49f (eBioscience). All antibodies were used at 1:100 dilutions, 30 minutes at 4° C. After washing several times with PBS, cells were analyzed by FACS.

[8] = system: orthotopic FG pancreatic tumors; assay: Orthotopic pancreas cancer xenograft model; format: in vivo, mice
Procedure: All mouse experiments were carried out in accordance with approved protocols from the UCSD animal subjects committee and with the guidelines set forth in the NIH Guide for the Care and Use of Laboratory Animals. Tumors were generated by injection of FG human pancreatic carcinoma cells (10^6 tumor cells in 30 μL of sterile PBS) into the tail of the pancreas of 6-8 week old male immune compromised nu/nu mice.
Tumors were generated as previously described (JAY).

[9] = system: subcutaneous A549 xenografts; assay: Subcutaneous A549 xenografts, integrin β3 knockdown; format: in vivo, mice; conditions: A549 shCTRL vs sh β3, erlotinib 25 mg/kg/day, 16 days
Excerpt: (A) Immunoblots showing integrin β3 knockdown efficiency in cells used in FIG. 1. […] Tumor volumes are expressed as mean±SEM. n=8 mice per group. (C) Immunoblots showing expression of indicated proteins of representative tumors. […] (E) Effect of integrin β3 expression on lapatinib, OSI-906, cisplatin and gemcitabine n=3; mean±SEM. (F) Viability assay (CellTiter-Glo assay) of FG and FG-β3 cells grown in suspension in media with or without serum. n=2; mean+SEM. *P<0.05. **P<0.01.
(a) Effect of integrin β3 expression (ectopic expression for FG and integrin β3-specific knockdown for PANC-1) cells on drug treatment response. Cells were treated with a dose response of gemcitabine, cisplatin, erlotinib, lapatinib and linsitinib. […] Tumor volumes are expressed as mean±SEM. *P<0.05. […] Results are expressed as % tumor weight compared to vehicle control. *P<0.05. […] (f) Relative mRNA expression of integrin β3 (ITGB3) in HCC827 vehicle-treated tumors (n=5) or erlotinib-treated tumors (n=7) from (e) after acquired resistance. Data are mean±SE; **P<0.001. […] Scale bar, 50 μm. […] The HCC827 erlotinib-treated tumors have been digested and sorted in two groups: the integrin β3− and the integrin β3+ population.

[10] = system: stage IV non-small cell lung cancer; assay: Serial biopsies from NSCLC patients on erlotinib therapy; format: in vivo, human
Procedure: All biopsies are from lung or pleural effusion. […] This work was approved by the UCSD Institutional Review Board (IRB).
Immunostaining was performed according to the manufacturer's recommendations (Vector Labs) on […] sections of paraffin-embedded tumors from tumor biopsies from lung cancer patients. Tumor sections were processed as previously described (23) using integrin β3 (Abcam clone EP2417Y). Sections stained with integrin β3 were scored by a H-score according to the staining intensity (SI) on a scale 0 to 3 within the whole tissue section.

PANC-1 cells = assay: Tumor sphere formation assay, knockdown of αvβ3 (Example 1); format: cell-based, human
Procedure: Tumor spheres formation assays were performed essentially as described previously^17. Briefly, cells were seeded at 1000 to 2000 cells per well and grown for 12 days to 3 weeks. […] Colonies were stained with crystal violet and scored with an Olympus SZH10 microscope. Survival curves were generated at least with five concentration points.

[11] = systemic erlotinib treatment for 7-8 weeks

Question: With N.N.[Cl][Pt][Cl] [cisplatin] as the molecule, how does the “effect of αvβ3 expression on drug resistance (tumor sphere formation)” value (shortened to “effect of αvβ3 expression”) (FG and FG-β3 cells) read?
Answer: failed to protect cells

Question: What about the “effect of β3 expression on drug response, cells growing in 3D” value (shortened to “effect of β3 expression on drug response”) [1] of the same molecule?
Answer: did not impact the response

Question: And the “impact of integrin β3 expression on resistance” value [2]?
Answer: did not impact resistance

Question: With CC(C)C[C@H](NC(=O)[C@H](Cc1ccccc1)NC(=O)c1cnccn1)B(O)O [bortezomib] as the molecule, how does the “tumor growth, monotherapy” value [3] read?
Answer: failed to impact tumor growth

Question: And the “tumor growth in vivo, combination with erlotinib” value [3]?
Answer: completely suppressed tumor growth

Question: What about the “tumorsphere formation in vitro, combination with erlotinib” value [2] of the same molecule?
Answer: decreased tumorsphere formation

Question: How did the “erlotinib resistance, ligation competent vs incompetent integrin αvβ3” value (FG and FG-β3 cells; FG cells transfected with WT β3 or D119A mutant) turn out when C#Cc1cccc(Nc2ncnc3cc(OCCOC)c(OCCOC)cc23)c1 [erlotinib, N-(3-ethynylphenyl)-6,7-bis(2-methoxyethoxy) quinazolin-4-amine] was run?
Answer: same degree of erlotinib resistance

Question: What about the “effect of αvβ3 expression” value (FG and FG-β3 cells) of the same molecule?
Answer: dramatically increased erlotinib resistance

Question: What about the “effect of β3 expression on drug response” value [1] of the same molecule?
Answer: reduced sensitivity

Question: And the “response of colonies / tumorsphere formation to single agent” value [4]?
Answer: resistant

Question: And the “αvβ3 (CD61) status of human lung cancer cells detected in the circulation” value [5]?
Answer: positive for αvβ3

Question: And the “integrin β3 expression in erlotinib resistant vs vehicle-treated tumors” value (HCC827 xenograft tumors)?
Answer: significantly higher

Question: What about the “levels / activation of phosphorylated TBK1 and NF-κB” value [6] of the same molecule?
Answer: reduced; also recorded: decreased the activation

Question: And the time until moribund ([7]; erlotinib 100 mg/kg/day by oral gavage, start 3 weeks after tumor cell injection)?
Answer: ~58 days

Question: And the development of resistance [7, 11]?
Answer: developed resistance

Question: And the “integrin αvβ3 expression compared with vehicle-treated tumors” value [7, 11]?
Answer: qualitative increase in integrin αvβ3 expression

Question: What about the “integrin αvβ3 / β3 expression after prolonged erlotinib exposure in vitro” value (integrin αvβ3 (CD61)) of the same molecule?
Answer: the greater the expression level of αvβ3; also recorded: induction of β3 expression

Question: And the “erlotinib resistance of orthotopic pancreatic tumors with ectopic β3 expression” value ([8]; FG vs FG-β3 orthotopic tumors, systemic treatment)?
Answer: dramatically increased erlotinib resistance; also recorded: conferred erlotinib resistance

Question: And the “increase in αvβ3 expression” value ([8]; orthotopic FG pancreatic tumors, four weeks of erlotinib treatment)?
Answer: 10 fold

Question: And the “EGFR phosphorylation in tumor lysates (immunoblot)” value ([8]; orthotopic FG tumors after 10 days of erlotinib)?
Answer: suppressed EGFR phosphorylation

Question: What about the erlotinib response ([2]; H1650 cells, wildtype KRAS and mutant EGFR) of the same molecule?
Answer: resistant

Question: And the erlotinib response ([2]; tumor cell lines with oncogenic KRAS: FG, H441, and CAPAN1)?
Answer: sensitive

Question: And the “erlotinib resistance after knockdown of integrin β3” value [9]?
Answer: overcame erlotinib resistance

Question: And the “disease progression after days of erlotinib therapy” value (from here on “disease progression after days”) ([10]; Patient 1)?
Answer: 920 days

Question: And the “disease progression after days” value ([10]; Patient 2)?
Answer: 92 days

Question: What about the “disease progression after days” value ([10]; Patient 3) of the same molecule?
Answer: 120 days

Question: And the initial response ([10]; all 3 patients)?
Answer: partial response

Question: And the “integrin β3 expression in biopsies after vs before erlotinib resistance” value ([10]; paired lung tumor biopsies, immunohistochemistry)?
Answer: qualitative increase in integrin β3 expression; also recorded: qualitatively higher

Question: What about the “increase in tumor cell sensitivity to erlotinib after knockdown of αvβ3” value (PANC-1 cells) of the same molecule?
Answer: 10 fold

Question: How did the “effect of β3 expression on drug response” value [1] turn out when CS(=O)(=O)CCNCc1ccc(-c2ccc3ncnc(Nc4ccc(OCc5cccc(F)c5)c(Cl)c4)c3c2)o1 [lapatinib] was run?
Answer: reduced sensitivity

Question: Which results are given for Nc1cccc2c1CN(C1CCC(=O)NC1=O)C2=O (racemic) [lenalidomide, (RS)-3-(4-amino-1-oxo-3H-isoindol-2-yl)piperidine-2,6-dione]?
Answer: response of colonies / tumorsphere formation to single agent [4]: resistant; tumorsphere formation, combination with erlotinib [4]: decreased tumorsphere formation; tumor growth, monotherapy [3]: failed to impact tumor growth; tumor growth in vivo, combination with erlotinib [3]: completely suppressed tumor growth; tumorsphere formation in vitro, combination with erlotinib [2]: decreased tumorsphere formation

Question: Which “effect of αvβ3 expression” value (FG and FG-β3 cells) does the source give for C[C@]1(O)C[C@@H](c2nc(-c3ccc4ccc(-c5ccccc5)nc4c3)c3c(N)nccn32)C1 [OSI-906] here?
Answer: induced resistance

Question: And the “effect of β3 expression on drug response” value [1]?
Answer: reduced sensitivity

Question: With O=C(Nc1cc(Cl)cc2c1[nH]c1cnccc12)c1cccnc1 [PS-1145] as the molecule, how does the “response of colonies / tumorsphere formation to single agent” value [4] read?
Answer: resistant

Question: What about the “tumorsphere formation, combination with erlotinib” value [4] of the same molecule?
Answer: decreased tumorsphere formation

Question: What does the source list for Nc1ccn([C@@H]2O[C@H](CO)[C@@H](O)C2(F)F)c(=O)n1 [gemcitabine]?
Answer: effect of αvβ3 expression on drug resistance (tumor sphere formation) (FG and FG-β3 cells): failed to protect cells; effect of β3 expression on drug response, cells growing in 3D [1]: did not impact the response; impact of integrin β3 expression on resistance [2]: did not impact resistance

Source: US20180203014A1, “COMPOSITIONS FOR DETECTING CIRCULATING INTEGRIN BETA-3 BIOMARKER AND METHODS FOR DETECTING CANCERS AND ASSESSING TUMOR PRESENCE OR PROGRESSION, CANCER DRUG RESISTANCE AND TUMOR STEMNESS” (The Regents of the University of California, priority 2015, published 2018)
